Experimental data as given in patent publication US7129232B2, “Cephem compounds” (Astellas Pharma Inc., priority 2002, dated 2006).
In brackets after ≈: the same amount, converted by molar mass.

System: Pseudomonas aeruginosa FP 1380
Assay: In vitro antibacterial activity (MIC) by the two-fold agar-plate dilution method
Format: cell-based
Settings: test strain Pseudomonas aeruginosa FP 1380, heart infusion agar, incubation at 37° C. for 20 hours; for MIC: FP1380, read-out: MIC (minimal inhibitory concentration)
Experimental: In vitro antibacterial activity was determined by the two-fold agar-plate dilution method as described below.
One loopful of an overnight culture of each test strain in Trypticase-soy broth (10^6 viable cells per ml) was streaked on heart infusion agar (HI-agar) containing graded concentrations of representative test compound, and the minimal inhibitory concentration (MIC) was expressed in μg/ml after incubation at 37° C. for 20 hours.

Row | SMILES | MIC | MIC (minimal inhibitory concentration)
1 | CC(C)(O/N=C(\C(=O)N[C@@H]1C(=O)N2C(C(=O)[O-])=C(C[n+]3ccccc3)CS[C@H]12)c1csc(N)n1)C(=O)O [Ceftazidime, reference compound] | 128 µg/mL (≈ 234 µM) | –
2 | CC(C)(O/N=C(\C(=O)N[C@@H]1C(=O)N2C(C(=O)[O-])=C(C[n+]3cc(NC(=O)CCN)c4n3CCN4)CS[C@H]12)c1nsc(N)n1)C(=O)O [Compound (a), 7β-[(Z)-2-(5-amino-1,2,4-thiadiazol-3-yl)-2-(1-carboxy-1-methylethoxyimino)acetamido]-3-[7-(3-aminopropionamido)-2,3-dihydro-5-(1H-imidazo[1,2-b]pyrazolio)]methyl-3-cephem-4-carboxylate] | – | 2 µg/mL (≈ 3.01 µM)
3 | Cn1c(N)c(NC(=O)CCN)c[n+]1CC1=C(C(=O)[O-])N2C(=O)[C@@H](NC(=O)/C(=N\OC(C)(C)C(=O)O)c3nsc(N)n3)[C@H]2SC1 [Compound (b), 7β-[(Z)-2-(5-amino-1,2,4-thiadiazol-3-yl)-2-(1-carboxy-1-methylethoxyimino)acetamido]-3-[3-amino-4-(3-aminopropionamido)-2-methyl-1-pyrazolio]methyl-3-cephem-4-carboxylate] | 1 µg/mL (≈ 1.53 µM) | –
4 | Cn1c(N)c(NC(=O)CN)c[n+]1CC1=C(C(=O)O)N2C(=O)[C@@H](NC(=O)/C(=N\OC(C)(C)C(=O)O)c3nsc(N)n3)[C@H]2SC1.O=S(=O)([O-])O [Compound (c), 7β-[(Z)-2-(5-amino-1,2,4-thiadiazol-3-yl)-2-(1-carboxy-1-methylethoxyimino)acetamido]-3-[3-amino-4-(aminoacetyl)amino-2-methyl-1-pyrazolio]methyl-3-cephem-4-carboxylic acid hydrogen sulfate] | 2 µg/mL | –
5 | Cn1c(N)c(NC(=O)NCCN)c[n+]1CC1=C(C(=O)O)N2C(=O)[C@@H](NC(=O)/C(=N\OC(C)(C)C(=O)O)c3nsc(N)n3)[C@H]2SC1.O=S(=O)([O-])O [Compound (d), 7β-[(Z)-2-(5-amino-1,2,4-thiadiazol-3-yl)-2-(1-carboxy-1-methylethoxyimino)acetamido]-3-{3-amino-4-[3-(2-aminoethyl)ureido]-2-methyl-1-pyrazolio}methyl-3-cephem-4-carboxylic acid hydrogen sulfate] | 2 µg/mL | –
6 | Cn1c(N)c(NC(=N)N)c[n+]1CC1=C(C(=O)O)N2C(=O)[C@@H](NC(=O)/C(=N\OC(C)(C)C(=O)O)c3nsc(N)n3)[C@H]2SC1.O=S(=O)([O-])O [Compound (e), 7β-[(Z)-2-(5-amino-1,2,4-thiadiazol-3-yl)-2-(1-carboxy-1-methylethoxyimino)acetamido]-3-(3-amino-4-guanidino-2-methyl-1-pyrazolio)methyl-3-cephem-4-carboxylic acid hydrogen sulfate] | 1 µg/mL | –
